Data reported in a melting point compilation (Tetko et al.; mined from patent text by program, amines drawn as free bases though some values may be those of a salt).

melting point [°C]	Structure (SMILES)
112 to 115	COCCCCC(O)(c1ccccc1)c1ccccc1
120 to 123	CSC1C(=O)Nc2ccc(Oc3ccccc3Cl)cc21 (stereo not given)
47	CSC(=S)NCc1c(Cl)cccc1Cl
202 to 203	Cc1ccc(C)c(NC(=O)NCC2(c3ccccc3)CCCCC2)c1
156 to 157	Cc1cc(SCc2ccc(-c3ccc(C(F)(F)F)cn3)cc2)c2c(c1OCC(=O)O)CCCO2
72	CCOC(=O)CC(=O)C=Cc1ccccc1[N+](=O)[O-]
223 to 227	NC(=O)c1nc(-c2ccc(O)cc2)cs1
148 to 149	O=C(c1cccc(Cl)c1)C1C(=O)c2ccccc2C1=O
138 to 140	CC(=O)Oc1ccc2c(c1)C(=O)N(C(C)=O)C(C(Cl)(Cl)Cl)O2 (stereo not given)
176 to 178	COc1ccc(C(=O)Nc2ccc(F)c(F)c2)cc1NCc1ccccc1
161 to 163	CN(C)C=NS(=O)(=O)c1cc2cnc(CO)cc2o1
132	O=S(=O)(Nc1onc2c1CCC2)c1ccccc1
93	COc1cc(CCC(=O)C2=C(Cl)CCC2)cc(OC)c1OC
214 to 216	Cn1ncc(C(=O)Nc2ccc(-n3nc(C(F)(F)F)cc3C(F)(F)F)cc2)c1[N+](=O)[O-]
91 to 93	CC(C)(C)c1cccc(C[C@@H](NC(=O)c2cccc3c(Cl)cccc23)[C@@H](O)c2cccc(Cl)c2)c1 (racemic)
68 to 70	O=[N+]([O-])c1ccc(F)c(-c2cccnc2)c1F
51 to 53	C=CCOC(=O)C(C)(C)ON1C(=O)c2ccccc2C1=O
142 to 144	CCCC(=O)c1cnc2c(C=O)cccc2c1Nc1ccccc1C
251	CS(=O)(=O)c1cccc(NC(=O)c2cnn3c(C(F)F)cc(-c4ccc(C(F)(F)F)cc4)nc23)c1
142 to 144	Cc1cccc([N+](=O)[O-])c1CNc1cccn2c(Cl)c(C)nc12
253 to 254	O=C(O)c1ccc2c(c1)nc(-c1ccc(Oc3cccc(-c4cccc(Cl)c4)c3)cc1)n2C1CCCCC1
125 to 126	Oc1ccc(Br)cc1CNc1cc(Cl)cc(Cl)c1
48 to 50	CCn1c(Cl)nc2ccccc21
74 to 75	COc1ccc(CC(C)=O)cc1SC
248 to 250	CCc1[nH]n(C2CCCC2)c2nc(=S)[nH]c(=O)c1-2

melting point [°C]	Structure (SMILES)
161 to 168	N#CC1=Nc2cc(Cl)ccc2Oc2ccccc21
114 to 115	CCCc1c(O)c(C(C)=O)cc(C(C)=O)c1NCC
142	CC(C)N(C=O)C(=O)c1nc(Cl)c(Cl)[nH]1
146 to 147	COC(=O)c1ccc(NC(=O)Cc2ccc(OC)c(C34CC5CC(CC(C5)C3)C4)c2)cc1
231	Cc1cc(-c2cc(C(F)F)n3ncc(-c4nc(-c5ccc(N)nc5)no4)c3n2)ccc1C(F)(F)F
263 to 264	O=C(O)c1cc(C(=O)O)c(C(O)=NCc2ccc(C(F)(F)F)cc2)cc1C(O)=NCc1ccc(C(F)(F)F)cc1
79 to 81	CCOc1ccc(CCCc2ccncc2)cc1
99 to 100	CSc1cccc(-c2coc3ccc(-c4nnc(C)o4)cc23)c1
245 to 246	Cc1cccc(C)c1CNc1cc(CO)cc2c1nc(C)n2C
40 to 46	Cn1c(COc2ccc(CC(OCc3ccc(F)cc3)C(=O)O)cc2)nc2ccc(Sc3cc(C(C)(C)C)c(O)c(C(C)(C)C)c3)cc21 (stereo not given)
245	COc1cc(N2C(=O)c3ccccc3C2=O)c(F)cc1C#N
250 to 251	O=C(c1c[nH]c2cc(C(F)(F)F)ccc12)C(F)(F)F
80 to 81	COC(=O)c1sc2nc(C(C)C)ccc2c1O
69 to 70	CCCCCCCCS(=O)(=O)C(Cc1ccc(OCCN2CCCCC2)cc1)C(=O)NO (stereo not given)
181 to 182	OCc1c(-c2ccc(O)cc2)nnn1-c1ccc(C(F)(F)F)cc1Cl
167 to 168	Cc1oc(-c2ccco2)nc1COc1ccc(COc2ccccc2CC(=O)O)cc1
158 to 161	COc1cc(OC)nc(Nc2ccc(C)cc2[N+](=O)[O-])n1
259 to 261	O=C(Nc1cc(F)cc(F)c1)c1cc(Br)ccc1O
189 to 190	CC1=C(C)C(=O)N(C(=O)NCCc2ccc(S(=O)(=O)NC(=O)NC3CCCCC3)cc2)C1
128	COc1nc(C)nc(NC(=O)NS(=O)(=O)OCC(Cl)(Cl)Cl)n1
175 to 177	Nc1ccc(-c2nc(C(=O)Nc3nccs3)c(-c3ccc(C(F)(F)F)cc3)[nH]2)cc1
150 to 157	O=C(c1ccc(-c2ccn(C(=O)c3ccc(F)cc3Cl)n2)cc1)N1Cc2cccn2Cc2ccccc21
143 to 145	Cn1c(=O)n(Cc2ccccc2)c(=O)c2cc(C(=O)OCc3ccccc3)sc21
217	Cn1c(C(=O)O)cc2c(OCc3ccccc3)cccc21
108 to 110	CCCc1c(OCCSc2nc3ccc(C(=O)O)cc3[nH]2)ccc(C(C)=O)c1O

melting point [°C]	Structure (SMILES)
82	CC(C)Nc1cncc(C#N)c1
194 to 195	CS(=O)(=O)c1ccc(-c2sc(-c3cccs3)nc2-c2ccc(F)cc2)cc1
132 to 133	C=CCc1cc(C=CC(=O)O)ccc1O
84 to 85	CCCCCc1ocnc1C(=O)O
96 to 98	CC(Cc1ccc(-c2ccc(Cl)cc2)cc1Cl)NC(=O)c1cn(C)nc1C(F)F (stereo not given)
156	CC(C)(C)c1cc(SCCC(=O)NC2C3CC4CC(C3)CC2C4)cc(C(C)(C)C)c1O (stereo not given)
165 to 168	COc1cc2c(=O)c(C)cn3c4ccccc4c(c1)c23
209 to 210	CCCCc1ccc(C(=O)O)cc1C12CC3CC(CC(C3)C1)C2
197 to 200	CC(C(O)c1ccc2nc(N)sc2c1)N1CCC(Cc2ccccc2)CC1 (stereo not given)
123 to 124	O=C(Nc1ccc2c(c1)C(O)CC2)C(F)(F)F (stereo not given)
111 to 112	CSC1NC(=O)N(C2CCCCC2)C(=O)N1N=C(C)C (stereo not given)
201 to 204	CS(=O)(=O)Nc1ccc([N+](=O)[O-])cc1N
263	N#Cc1c(N2CCN(C(=O)c3cccs3)CC2)c2cccnc2n(Cc2ccccc2)c1=O
230 to 231	CS(=O)(=O)N(c1cc(-c2ncc(C(F)(F)F)cc2Cl)ccc1Cl)S(C)(=O)=O
197 to 199	CN1C(O)=C(C(=O)Nc2ccc(Br)cc2)c2ccsc2S1(=O)=O
202 to 204	Cc1ccc(C(=O)NC(NC(=S)Nc2ccc(F)cc2F)C(F)(F)F)cc1 (stereo not given)
93 to 94	O=C(NCCCCCCOC(=O)N1CCC(OC(=O)Oc2ccc([N+](=O)[O-])cc2)CC1)Oc1ccc(Oc2ccccc2)cc1
185 to 187	COc1cc2c(Nc3ccc4cn[nH]c4c3)c(C#N)cnc2cc1OCCN(C)CC1OCCO1
147 to 148	COc1cc2ncnc(N3CCN(C(=S)NC4CCOC4=O)CC3)c2cc1OC (stereo not given)
162	CS(=O)(=O)C(=C1CN(C(c2ccccc2)c2ccccc2)C1)c1cccc(OC(F)(F)F)c1
176 to 177	CCOC(=O)c1cn(CC)c2cc(N3CCN(C)CC3)ncc2c1=O
92 to 93	COc1cc(Nc2nccc(-c3ccc(N4CCN(C)[C@@H](C)C4)nc3)n2)cc(OC)c1OC
177 to 178	CC(Oc1ccc2c(c1)c(-c1cc3cccnc3[nH]1)cn2C)C(=O)O (stereo not given)
117 to 118	C=C(c1ccc(C(=O)OC)cc1)c1ccc2c(c1)C(C)(C)CCC2(C)C
119 to 126	CCOC(=O)C(C#N)=CNc1ccc(-c2ccccc2)cn1

melting point [°C]	Structure (SMILES)
53	CCc1noc(CC(=O)N(C)c2ccccc2)n1
268 to 270	O=c1[nH]c2ccc(C(F)(F)F)cc2c(-c2cc(Cl)ccc2O)c1NS(=O)(=O)C(F)(F)F
235 to 237	CN(C)C(C)(C)c1ccc(-c2nc(Nc3ccc(-n4cncn4)cc3)ncc2C#N)cc1
105 to 107	NC(=O)N(O)CC#CCOc1cccc(Oc2ccccc2)c1
200 to 202	CN1CCN(c2cc3c(Br)cccc3c(=O)[nH]2)CC1CO (stereo not given)
69 to 71	CCOC(=O)C1=C(COCCOCCN)NC(C)=C(C(=O)OC)C1c1cccc(Cl)c1Cl (single isomer, unassigned; (-))
82 to 83	N#Cc1c(Cl)ccc2ccccc12
320 to 324	CN(C)c1noc(-c2ccc3c(c2)c2cc(-c4ccc(Cl)cc4Cl)c(=O)n(C)c2n3C)n1
153 to 155	O=C1NCCN1Cc1ccncc1
248 to 250	Fc1ccc2nc(S)oc2c1
212 to 215	C=C(C)c1cn(C2OC(CO)C(O)C2O)c(=O)[nH]c1=O (stereo not given)
157 to 159	COc1ccc(S(=O)(=O)N2CCc3cccc(-c4ccc(C#N)cc4)c32)cc1
22 to 25	C=CCCC(Oc1ccc(C(=O)Cl)cc1)C1CCCCC1 (stereo not given)
144 to 145	COc1cc2c(c(OC(C)=O)c1)C1CCC3(C)C(=O)CCC3C1CC2 (stereo not given)
128 to 129	Nc1c(CCO)cccc1C(O)c1ccc(Br)cc1 (stereo not given)
245	CC(C)c1ccc(C(=O)O)cc1S(N)(=O)=O
160 to 161	CCOC(=O)c1sc2ccc(O)cc2c1Cl
198 to 199	CN(C)C(=O)Sc1ccc(C(=O)c2ccc([N+](=O)[O-])cc2)cc1
153 to 154	O=Cc1cn(Cc2ccc(OCc3coc(-c4ccccc4)n3)cc2)nc1-c1cccs1
110 to 111	Cc1nc(C)c(CN2CCN(C)CC2)c(-c2ccccc2OCc2ccc(Cl)cc2)n1
155 to 158	COc1cc(N)cc(C)c1OCCCN1CCN(c2cccc3sccc23)CC1
215 to 218	Nc1ccccc1NC(=O)c1ccc(COc2ccc3ncnc(Nc4cccc(Br)c4)c3c2)cc1

Structure (SMILES)	melting point [°C]
COc1ccc2[nH]cc(CN(C)C)c2c1Cl	145 to 149
CC(Cl)CC1Oc2ncccc2C(=S)NC1C (stereo not given)	95 to 97
CCC1C(C)=NN=C(c2ccc(OC)cc2)c2cc(OC)c(OC)cc21 (stereo not given)	157 to 159
